Results as given in patent US20240400986A1, “MEMBRANE BOUND COMPOSITIONS AND METHODS RELATING TO SAME” (FLAGSHIP PIONEERING INNOVATIONS VII, LLC, priority 2021, published 2024).
Where two headings read alike, the source gives them in different places.

Experiments:
[1] = test system: cardiomyocytic cell line derived from human ventricular heart tissue; assay: Small molecule compound screen of gigasome production in cardiomyocytic monocultures;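 further: gigasomes shed into the culture medium were imaged by confocal microscopy and counted as round particles lacking nuclear signal, extrapolated to the whole well, fold change is relative to DMSO vehicle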
[2] = test system: cardiomyocytic cell line derived from human ventricular heart tissue; assay: Cell viability in cardiomyocyte compound screen (CellTiter-Glo); assay type: cell-based
[3] = test system: neuronal cell line derived from human neuroblastoma
[4] = test system: neuronal cell line derived from human neuroblastoma; assay: Small molecule compound screen of gigasome production in neuronal monocultures
Source text: To quantify and characterize gigasome production using microscopy, while tracking cell viability/phenotype, a multi-readout system was developed that allowed simultaneous analysis of gigasomes harvested from cell culture media supernatants and respective gigasome producing cell viability. […] For the screening, a total of 99 compounds (TargetMol) were divided in 5 groups. Each group included an untreated condition, a vehicular DMSO control, and a known high-gigasome producing condition to comparatively study gigasome production rates. As a cell death control group, 500 nM Staurosporine was added to induce apoptosis. Cultures were incubated for 24 hours under gigasome inducing conditions at concentrations ranging between 10 nM and 10,000 nM. Before the end of the treatment, live neuronal cultures were imaged. The Zeiss ZEN Blue software was used to distribute imaging fields of view (positions) to create an unbiased imaging sample of a well. 5 images were taken using a Zeiss LSM 900 confocal microscope. […] The BioApps ZEN software package was used to perform cell nucleus segmentation and counting. After 24 hours, gigasomes were harvested from the cell culture media by gently removing from the top of each 96-well ⅔ of the total volume without disturbing the cell layer (containing the settled gigasomes) and by adding to each well the same amount of PBS. The wells were washed twice gently, and the gigasome-containing media/PBS wash was transferred into the well of a 384-well glass bottom plate. Cells remaining in the 96-well plates were assessed for viability using CellTiter-Glo (Promega).
For gigasome analysis in 384-well plates, the Zeiss ZEN Blue software was used to distribute positions to create an unbiased imaging sample of a well. 6 images per well were taken using a Zeiss LSM 900 confocal microscope.
A watershed binary segmentation step was performed to separate grouped objects. For each particle in the mask, characteristic parameters of the particle were calculated and saved.
Particles of interest were identified by thresholding by area and circularity. […] Circularity, defined by the formula 4pi(area/perimeter^2, was set to be between 0.8 and 1, where a value of 1.0 is a perfect circle, and a value of 0 is a line. Gigasomes were identified from the particles of interest by thresholding by mean nuclear signal. The nuclear signal threshold was set using a value equal to one fourth of a threshold value calculated by the Li auto-threshold algorithm applied to the distribution of all particles of interest. Particles of interest with nuclear signal below this value were considered “negative” for nuclear material and were identified as gigasomes. A sampling factor was calculated to extrapolate the total quantity of a type of object (particles, particles of interest, gigasomes) in the well. The sampling factor was the percentage of the well's area that was imaged. […] The normalized quantity or distribution of objects was described as a quantity or distribution of objects per 1000 cells.

neuronal cells = assay: Gigasome-mediated extraction of APP-CTFs upon γ-secretase and proteasome inhibition (fixed plates, confocal); assay type: cell-based, human; settings: γ-secretase inhibitor 5 μM, MG-132 0.1 μM, alone or combined; 24 h; compared to DMSO
Experimental: Cells were treated with the γ-secretase inhibitor L-685,458 at 5 μM, either alone or in combination with the proteasome inhibitor MG-132 at 0.1 μM. A vehicular control amount of DMSO was added to the media to comparatively study cargo signals within cells and gigasomes. Treatments were carried out in reduced serum-containing media (3% FBS) for 24 hours. Disease-related cargo presence within cells and in gigasomes was characterized and quantified by confocal microscopy analysis of 4% paraformaldehyde fixed cells, following (immuno)fluorescent labeling of cytosolic, nuclear and cargo-specific protein markers. In some experiments β-III tubulin and Alexa Fluor® 488 phalloidin were used to mark the cytosol and proximal plasma membrane, respectively. To detect APP-CTFs, an antibody against the C-terminus of APP (C-APP) was used (see Table 12). Non-specific labeling was blocked by incubation with 5% normal goat serum in PBS in the presence of 0.05% saponin, for 1 h at room temperature. Primary antibodies were incubated overnight at 4° C., followed by incubation with Alexa Fluor®-conjugated secondary antibodies for 1 hour at room temperature. Nuclei were counterstained with DAPI.
A range of 5-8 images per well were taken from replicate experiments to capture a final total range of 150-200 cells. […] The cellular cargo fluorescence intensity in the red channel was quantified by subtracting the background signal from each image, using the ImageJ built-in “subtract background” function with a default rolling ball radius of 50 pixel. The cargo signal (integrated density) in the red channel was measured and normalized to the number of nuclei counted in each field. […]
For particle analysis, the cytosolic and F-actin/membrane signals were merged into single RGB image, converted to grayscale and then thresholded to create a cellular mask of objects in the field of view, as calculated by the “Li” autothreshold algorithm. […] The quantity or distribution of objects obtained from the particle analysis was divided by the number of cells counted in each field to obtain a normalized quantity or distribution.

[5] = Homo sapiens, Cardiomyocyte, 24 h, read-out: Fold Change of Gigasomes Produced vs. DMSO
[6] = Homo sapiens, 24 h, read-out: Fold Change of Gigasomes Produced vs. DMSO
[7] = Table 22, dose 10 nM, cardiomyocytes, 24 hours
[8] = neuronal cells, dose 10 nM, 24 hours
[9] = Table 23 (down-regulators), dose 10 nM, cardiomyocytes
[10] = Table 23 (down-regulators), dose 100 nM, cardiomyocytes
[11] = Table 23 (down-regulators), dose 1000 nM, cardiomyocytes
[12] = Table 23 (down-regulators), dose 10000 nM, cardiomyocytes
[13] = neuronal cells, dose 100 nM, 24 hours
[14] = neuronal cells, dose 1000 nM, 24 hours

Q: What does the source list for `Nc1ccccc1NC(=O)c1ccc(CNC(=O)OCc2cccnc2)cc1` [Entinostat, reference compound]?
A: fold induction at 0.1 µM [1, 5]: 1.75 to 2; Number of Gigasomes Produced ([1]; Table 22, dose 100 nM, cardiomyocytes, 24 hours): 300-325; Viability ([2]; human, 24 h, 100 nM): >75%; Viability ([3]; human, 24 h, 10000 nM): >75%; fold induction at 10 µM [4, 6]: 1.25 to 1.5; Number of Gigasomes Produced ([4]; neuronal cells, dose 10000 nM, 24 hours): 35-45

Q: How did the fold induction at 0.01 µM [1, 5] turn out when `CC(=O)O[C@H]1C(=O)[C@@]2(C)[C@H]([C@H](OC(=O)c3ccccc3)[C@]3(O)C[C@H](OC(=O)[C@H](O)[C@@H](NC(=O)c4ccccc4)c4ccccc4)C(C)=C1C3(C)C)[C@]1(OC(C)=O)CO[C@@H]1C[C@@H]2O` [Paclitaxel] was run?
A: The fold induction at 0.01 µM was 1.5 to 1.75.

Q: And the “Number of Gigasomes Produced” value [1, 7]?
A: Its value is 150-175.

Q: And the Viability ([2]; human, 24 h, 10 nM)?
A: Its Viability is >75%.

Q: And the Viability ([3]; human, 24 h, 10 nM)?
A: The Viability was >75%.

Q: And the fold induction at 0.01 µM [4, 6]?
A: Its fold induction at 0.01 µM is 1.5 to 1.75.

Q: What about the “Number of Gigasomes Produced” value [4, 8] of the same compound?
A: Its value is 55-65.

Q: `CC(C)C[C@H](NC(=O)[C@H](Cc1ccccc1)C[C@@H](O)[C@H](Cc1ccccc1)NC(=O)OC(C)(C)C)C(=O)N[C@@H](Cc1ccccc1)C(N)=O` [γ-secretase inhibitor, L-685,458] was tested. Which “intracellular APP-CTF levels (C-APP immunoreactivity)” value (neuronal cells) did it give?
A: The value was “increase”.

Q: Which “Fold Change of Gigasomes Produced vs. DMSO” value [1, 7] does the source give for `C[C@H]1CCC/C=C/[C@@H]2C[C@H](O)C[C@H]2[C@H](O)/C=C/C(=O)O1` [Brefeldin A] here?
A: The value was 1.25-1.5.

Q: What about the “Number of Gigasomes Produced” value [1, 7] of the same compound?
A: The value was 250-275.

Q: What about the Viability [2, 7] of the same compound?
A: Its Viability is >75%.

Q: What about the Viability [3, 8] of the same compound?
A: Its Viability is 100%.

Q: And the “Fold Change of Gigasomes Produced vs. DMSO” value [4, 8]?
A: The value was 1.5-1.75.

Q: What about the “Number of Gigasomes Produced” value [4, 8] of the same compound?
A: The value was 45-55.

Q: Which fold induction at 0.01 µM [1, 5] does the source give for `Cn1cnc(N)c2ncnc1-2` [Compound 3-Methyladenine, 3-Methyladenine] here?
A: Its fold induction at 0.01 µM is 1.25 to 1.5.

Q: What about the fold induction at 0.1 µM [1, 5] of the same compound?
A: Its fold induction at 0.1 µM is 1.25 to 1.5.

Q: What about the fold induction at 1 µM [1, 5] of the same compound?
A: Its fold induction at 1 µM is 0.75 to 1.

Q: What about the fold induction at 10 µM [1, 5] of the same compound?
A: The fold induction at 10 µM was 0.5 to 0.75.

Q: And the “Number of Gigasomes Produced” value [1, 9]?
A: Its value is >150.

Q: What about the “Number of Gigasomes Produced” value [1, 10] of the same compound?
A: The value was >150.

Q: What about the “Number of Gigasomes Produced” value [1, 11] of the same compound?
A: Its value is 120-135.

Q: What about the “Number of Gigasomes Produced” value [1, 12] of the same compound?
A: Its value is 90-105.

Q: What about the Viability [2, 9] of the same compound?
A: Its Viability is >75%.

Q: What about the Viability [2, 10] of the same compound?
A: Its Viability is >75%.

Q: What about the Viability [2, 11] of the same compound?
A: Its Viability is >75%.

Q: What about the Viability [2, 12] of the same compound?
A: Its Viability is >75%.

Q: What about the Viability [3, 8] of the same compound?
A: The Viability was 100%.

Q: What about the Viability [3, 13] of the same compound?
A: The Viability was 100%.

Q: What about the Viability [3, 14] of the same compound?
A: Its Viability is 100%.

Q: What about the fold induction at 0.01 µM [4, 6] of the same compound?
A: Its fold induction at 0.01 µM is 1.5 to 1.75.

Q: And the fold induction at 0.1 µM [4, 6]?
A: Its fold induction at 0.1 µM is 1.5 to 1.75.

Q: What about the fold induction at 1 µM [4, 6] of the same compound?
A: Its fold induction at 1 µM is 1.25 to 1.5.

Q: And the “Number of Gigasomes Produced” value [4, 8]?
A: The value was 45-55.

Q: What about the “Number of Gigasomes Produced” value [4, 13] of the same compound?
A: Its value is 45-55.

Q: And the “Number of Gigasomes Produced” value [4, 14]?
A: Its value is 35-45.
